Where a name gives a salt, the structure may show the parent alone. Read-outs that look alike come from different tables or passages of the source.
Key:
[1] = target: T1, human arginase I (ARG I) (Homo sapiens, UniProt P05089); assay: Inhibition of arginase I, spectrophotometric urea assay at 530 nm; assay type: biochemical; conditions: read-out: Potency (ARG I)
T1 sequence (P05089 1-322): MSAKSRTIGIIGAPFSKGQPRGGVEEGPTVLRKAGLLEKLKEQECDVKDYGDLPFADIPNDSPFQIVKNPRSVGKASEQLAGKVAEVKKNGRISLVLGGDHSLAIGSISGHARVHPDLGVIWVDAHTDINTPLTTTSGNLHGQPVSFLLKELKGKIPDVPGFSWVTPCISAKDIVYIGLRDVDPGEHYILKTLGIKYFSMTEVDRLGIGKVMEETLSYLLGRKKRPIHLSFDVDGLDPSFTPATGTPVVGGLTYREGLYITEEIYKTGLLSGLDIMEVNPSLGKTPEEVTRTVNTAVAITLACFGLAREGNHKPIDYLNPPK
Procedure: (§1) The assay established the concentration of inhibitor that is required to reduce arginase activity by 50% (IC50).
(§2) Inhibition of arginase I (ARG I) and arginase II (ARG II) by Formula I and Formula II compounds is followed spectrophotometrically at 530 nm. The compound to be tested is dissolved in DMSO at an initial concentration 50-fold greater than its final concentration in the cuvette. 10 μl of the stock solution is diluted in 90 μl of the assay buffer that comprises 0.1M sodium phosphate buffer containing 130 mM NaCl, pH 7.4, to which is added ovalbumin (OVA) at a concentration of 1 mg/ml. Solutions of arginase I and II are prepared in 100 mM sodium phosphate buffer, pH 7.4 containing 1 mg/ml of OVA to give an arginase stock solution at a final concentration of 100 ng/ml.
(§3) To each well of a 96-well microtiter plate is add 40 μl of enzyme, 10 μl of an inventive compound and 10 μl of enzyme substrate (L-arginine+manganese sulfate). For wells that are used as positive controls, only the enzyme and its substrate are added, while wells used as negative controls contain only manganese sulfate.
(§4) After incubating the microtiter plate at 37° C. for 60 minutes, 150 μl of a urea reagent obtained by combining equal proportions (1:1) of reagents A and B is added to each well of the microtiter plate to stop the reaction. The urea reagent is made just before use by combining Reagent A (10 mM o-phthaldialdehyde, and 0.4% polyoxyethylene (23) lauryl ether (w/v) in 1.8 M sulfuric acid) with Reagent B (1.3 mM primaquine diphosphate, 0.4% polyoxyethylene (23) lauryl ether (w/v), 130 mM boric acid in 3.6 M sulfuric acid). After quenching the reaction mixture, the microtiter plate is allowed to stand for an additional 10 minutes at room temperature to allow color development. The inhibition of arginase is computed by measuring the optical density (OD) of the reaction mixture at 530 nm and normalizing the OD value to percent inhibition observed in the control. The normalized OD is then used to generate a dose-response curve by plotting the normalized OD values against log [concentration] and using regression analysis to compute the IC50 values.

[2] = target: T2, arginase II (ARG II) (Homo sapiens, UniProt P78540); assay: Inhibition of arginase II, spectrophotometric urea assay at 530 nm; assay type: biochemical
T2 sequence (P78540 23-354): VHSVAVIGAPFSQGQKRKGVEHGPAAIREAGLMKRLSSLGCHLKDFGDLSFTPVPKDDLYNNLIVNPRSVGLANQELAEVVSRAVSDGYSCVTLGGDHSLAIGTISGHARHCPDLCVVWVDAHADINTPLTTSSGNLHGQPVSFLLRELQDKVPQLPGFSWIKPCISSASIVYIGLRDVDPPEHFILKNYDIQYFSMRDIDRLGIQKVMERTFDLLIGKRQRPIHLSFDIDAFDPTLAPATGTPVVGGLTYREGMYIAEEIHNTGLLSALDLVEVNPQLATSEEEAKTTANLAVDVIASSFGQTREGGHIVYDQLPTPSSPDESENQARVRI
Procedure: as §1, §2, §3, §4

[3] = Formula II compounds, Table 2-A
[4] = Formula II compounds, Table 2-A, read-out: Potency (ARG)
[5] = Formula I compounds, Table 2, read-out: Potency (ARG II)

Row | SMILES | IC50 [1, 3] [nM] | IC50 [2, 4] [nM] | IC50 ([1]; Formula I compounds, Table 2) [nM] | IC50 [2, 5] [nM]
1 | NC(CCCCB(O)O)(C(=O)O)[C@@H]1CCN(Cc2ccc(F)cc2)C1 (mixture of isomers) [37-A, 2-amino-6-borono-2-((R)-1-(4-fluorobenzyl)pyrrolidin-3-yl)hexanoic acid] | 251 to 1000 | 1000 to 2000 | – | –
2 | NC(CCCCB(O)O)(C(=O)O)[C@@H]1CCN(Cc2ccc(C(F)(F)F)cc2)C1 (mixture of isomers) [38-A, 2-amino-6-borono-2-((R)-1-(4-(trifluoromethyl)benzyl)pyrrolidin-3-yl)hexanoic acid dihydrochloride] | 251 to 1000 | 251 to 1000 | – | –
3 | CCN(CCC(N)(CCCCB(O)O)C(=O)O)Cc1ccccc1 (racemic) [compound 19, (R/S)-2-Amino-2-[2-(benzyl-ethyl-amino)-ethyl]-6-borono-hexanoic acid dihydrochloride] | – | – | 2000 to 5000 | 1000 to 2000
4 | NC(CCCCB(O)O)(C(=O)O)C1CCN(c2ccc(C(F)(F)F)cn2)CC1 (stereo not shown) [1-A, 2-amino-6-borono-2-(5′Trifluoromethyl-3,4,5,6-tetrahydro-2H-[1,2′]bipyridinyl-4-yl)-hexanoic acid hydrochloride] | 251 to 1000 | 1000 to 2000 | – | –
5 | NC(CCCCB(O)O)(C(=O)O)C1CCN(c2nccc(C(F)(F)F)n2)CC1 (stereo not shown) [2-A, 2-amino-6-borono-2-[(4-Trifluoromethyl-pyrimidin-2-yl)-piperidin-4-yl)-hexanoic acid hydrochloride] | 1000 to 2000 | 2000 to 5000 | – | –
6 | NC(CCCCB(O)O)(C(=O)O)C1CCN(c2cc(C(F)(F)F)nc3ccccc23)CC1 (stereo not shown) [3-A, 2-amino-6-borono-2-[(2-Trifluoromethyl-quinolin-4-yl)-piperidin-4-yl)-hexanoic acid hydrochloride] | 1000 to 2000 | 1000 to 2000 | – | –
7 | NC(CCCCB(O)O)(C(=O)O)C1CCN(c2nc3ccc(Cl)cc3o2)CC1 (stereo not shown) [4-A, 2-amino-6-borono-2-[(6-chlorobenzoxazol-2-yl)-piperidin-4-yl)-hexanoic acid hydrochloride] | 251 to 1000 | 1000 to 2000 | – | –
8 | Cc1cc2c(F)ccc(C)c2nc1N1CCC(C(N)(CCCCB(O)O)C(=O)O)CC1 (stereo not shown) [5-A, 2-amino-6-borono-2-(1-(5-fluoro-3,8-dimethylquinolin-2-yl)piperidin-4-yl)hexanoic acid dihydrochloride] | 1000 to 2000 | 251 to 1000 | – | –
9 | NC(CCCCB(O)O)(C(=O)O)C1CCN(c2cc(C(F)(F)F)c3ccccc3n2)CC1 (stereo not shown) [6-A, 2-amino-6-borono-2-(1-(4-(trifluoromethyl)quinolin-2-yl)piperidin-4-yl)hexanoic acid] | 251 to 1000 | 1000 to 2000 | – | –
10 | Cc1cc(C(F)(F)F)cc(N2CCC(C(N)(CCCCB(O)O)C(=O)O)CC2)n1 (stereo not shown) [7-A, 2-amino-6-borono-2-(1-(6-methyl-4-(trifluoromethyl)pyridin-2-yl)piperidin-4-yl)hexanoic acid] | 1000 to 2000 | 2000 to 5000 | – | –
11 | NC(CCCCB(O)O)(C(=O)O)C1CCN(c2ncc(Cl)cc2Cl)CC1 (stereo not shown) [8-A, 2-amino-6-borono-2-(1-(3,5-dichloropyridin-2-yl)piperidin-4-yl)hexanoic acid] | 2000 to 5000 | 2000 to 5000 | – | –
12 | NC(CCCCB(O)O)(C(=O)O)C1CCN(c2cc(C(F)(F)F)ccn2)CC1 (stereo not shown) [9-A] | 1000 to 2000 | 2000 to 5000 | – | –
13 | NC(CCCCB(O)O)(C(=O)O)C1CCN(c2ncc(C(F)(F)F)cc2Cl)CC1 (stereo not shown) [10-A, 2-amino-6-borono-2-(1-(3-chloro-5-(trifluoromethyl)pyridin-2-yl)piperidin-4-yl)hexanoic acid dihydrochloride] | 2000 to 5000 | 2000 to 5000 | – | –
14 | NC(CCCCB(O)O)(C(=O)O)C1CCN(c2nc3ccc(Cl)cc3s2)CC1 (stereo not shown) [11-A, 2-amino-6-borono-2-[(6-chlorobenzothiazol-2-yl)-piperidin-4-yl)-hexanoic acid dihydrochloride] | 251 to 1000 | 251 to 1000 | – | –
15 | N[C@@](CCCCB(O)O)(C(=O)O)[C@H]1CCN(c2ccc(Cl)cc2)C1 [12-A, (R)-2-amino-6-borono-2-((S)-1-(4-chlorophenyl)pyrrolidin-3-yl)hexanoic acid hydrochloride] | 2000 to 5000 | 2000 to 5000 | – | –
16 | NC(CCCCB(O)O)(C(=O)O)[C@@H]1CC(=O)N(c2ccc(Cl)cc2)C1 (stereo partly shown) [14-A, 2-amino-6-borono-2-[1-(4-chlorophenyl)-5-oxo-pyrrolidin-3-yl]-hexanoic acid hydrochloride] | 2000 to 5000 | 2000 to 5000 | – | –
17 | NC(CCCCB(O)O)(CCN1CCOCC1)C(=O)O (stereo not shown) [compound 24, 2-amino-6-borono-2-(2-morpholinoethyl)hexanoic acid] | – | – | – | 2000 to 5000

Continued, values first:

Row | IC50 [1, 3] [nM] | IC50 [2, 4] [nM] | IC50 ([1]; Formula I compounds, Table 2) [nM] | IC50 [2, 5] [nM] | SMILES
18 | – | – | > 5000 | > 5000 | NC(CCCCB(O)O)(CNC(c1ccccc1)C(O)c1ccccc1)C(=O)O (stereo in doubt) [compound 89, 2-amino-6-borono-2-(((1R,2S)-2-hydroxy-1,2-diphenylethylamino)methyl)hexanoic acid dihydrochloride]
19 | – | – | 0.1 to 250 | 0.1 to 250 | N[C@](CCCCB(O)O)(C[C@H]1CCCN1)C(=O)O (stereo in doubt) [compound 115, (R)-2-amino-6-borono-2-((R)-pyrrolidin-2-ylmethyl)hexanoic acid]
20 | – | – | – | 2000 to 5000 | NC(CCCCB(O)O)(CCN1CCNCC1)C(=O)O (stereo not shown) [compound 32, 2-amino-6-borono-2-(2-(piperazin-1-yl)ethyl)hexanoic acid trihydrochloride]
21 | – | – | – | 2000 to 5000 | CN1CCN(CCC(N)(CCCCB(O)O)C(=O)O)CC1 (stereo not shown) [compound 35, 2-amino-6-borono-2-(2-(4-methylpiperazin-1-yl)ethyl)hexanoic acid trihydrochloride]
22 | – | – | – | > 5000 | NC(CCCCB(O)O)(CN1CCOCC1)C(=O)O (stereo not shown) [compound 81, 2-amino-6-borono-2-(morpholinomethyl)hexanoic acid dihydrochloride]
23 | – | – | – | 2000 to 5000 | NC(CO)(CCCCB(O)O)C(=O)O (stereo not shown) [compound 82, 2-amino-6-borono-2-(hydroxymethyl)hexanoic acid hydrochloride]
24 | – | – | – | > 5000 | NC(CCCCB(O)O)(Cc1cccc(F)c1)C(=O)O (stereo not shown) [compound 98, 2-amino-6-borono-2-(3-fluorobenzyl)hexanoic acid hydrochloride]
25 | – | – | – | > 5000 | NC(CCCCB(O)O)(Cc1ccccc1)C(=O)O (stereo not shown) [compound 99, 2-amino-2-benzyl-6-boronohexanoic acid hydrochloride]
26 | – | – | – | > 5000 | COCCCC(N)(CCCCB(O)O)C(=O)O (stereo not shown) [compound 100, 2-amino-6-borono-2-(3-methoxypropyl)hexanoic acid hydrochloride]
27 | – | – | 2000 to 5000 | – | NC(CCCO)(CCCCB(O)O)C(=O)O (stereo not shown) [compound 101, 2-amino-6-borono-2-(3-hydroxypropyl)hexanoic acid hydrochloride]
28 | – | – | – | > 5000 | O=C(O)C1(CCCCB(O)O)CCCN1 (stereo not shown) [compound 103, 2-(4-boronobutyl)pyrrolidine-2-carboxylic acid hydrochloride]
29 | – | – | – | > 5000 | CC(C)CC(N)(CCCCB(O)O)C(=O)O (stereo not shown) [compound 104, 2-amino-6-borono-2-isobutylhexanoic acid hydrochloride]
30 | – | – | – | > 5000 | CC(C)C(N)(CCCCB(O)O)C(=O)O (stereo not shown) [compound 105, 2-amino-6-borono-2-isopropylhexanoic acid hydrochloride]
31 | – | – | 251 to 1000 | – | NC(CCCCB(O)O)(CCC1Cc2ccccc2CN1)C(=O)O (stereo not shown) [compound 131, 2-amino-6-borono-2-(2-(1,2,3,4-tetrahydroisoquinolin-3-yl)ethyl)hexanoic acid dihydrochloride]

Reference: patent US9994594B2, “Inhibitors of arginase and their therapeutic applications” (MARS, INCORPORATED, priority 2010, dated 2018)
